Measurements published in ChEMBL document CHEMBL1142059, “Excelsione, a depsidone from an endophytic fungus isolated from the New Zealand endemic tree Knightia excelsa” (J Nat Prod, 2007).

Tested on: P388; call rule not given here
Assay: Cytotoxicity against mouse P388 cells at 12.5 ug/mL
Format: cell-based

With `Cc1cc(O)c(CO)c2c1C(=O)Oc1c(C)c3c(c(O)c1O2)C(=O)OC3` [EXCELSIONE] as the compound, how does the Activity read?
The Activity was “Not Active”.
